The values that follow come from patent US11767310B2, “Nicotinamide RIPK1 inhibitors” (AbbVie Inc., priority 2021, dated 2023).

Each structure is given as a SMILES string. Marks after values point to notes of the source that are not given here.

Data set [1] in a line: Prodrug bioconversion in intestinal S9 cell fractions. The class given is in vitro ADME. As to conditions: 0.25 mg/mL. As for the experimental part:
(§1) Phosphatase enzymes are […] expressed with unique tissue specific isoforms and are key catalysts in the conversion of phosphate-containing prodrugs. To determine if exemplary phosphate prodrug compounds of the invention are enzymatically converted to the parent molecule across relevant species, the prodrug compounds were incubated with intestinal S9 cell fractions obtained from mouse, rat, dog, monkey, and human.
Phosphate prodrugs were incubated (1 μM) for up to 2 hours in Tris-Cl buffer (pH 7.4) containing 3 mM magnesium chloride, intestinal S9 protein ([…] (ms, rat, hu, Table F) from mouse, rat, dog, monkey or human. Incubations were conducted in the absence and presence of 1 mM sodium orthovanadate, a phosphatase inhibitor. Prodrug depletion and parent formation were monitored by LC-MS/MS and normalized to internal standard as the analyte peak area ratio.

Assay in data set [2]: as above
The format is in vitro ADME. As for the experimental part:
as §1
[…] Incubations were conducted in the absence and presence of 1 mM sodium orthovanadate, a phosphatase inhibitor. Prodrug depletion and parent formation were monitored by LC-MS/MS and normalized to internal standard as the analyte peak area ratio.

Data set [3] has as its target RIPK1 (Homo sapiens (Human), UniProt Q13546). Description: RIPK1 Binding Assay. As to conditions: displacement of fluorescent probe, TR-FRET. The protocol:
Compounds were tested for their ability to displace a fluorescent probe from recombinant human RIPK1.
Recombinant human RIPK1 (1-375) was prepared as described in Harris et al., ACS Med. Chem. Letters (2013) 4:1238-1243 (Supplementary Information), with the following exceptions: (i) instead of using the gene sequence from NM_003804.3, the gene was synthesized with codon optimization for BEV expression system, and (ii) the gene was cloned into the vector pFastBac1, not pDEST8.
A fluorescent probe containing an Oregon green fluorophore was synthesized from a compound known to bind to RIPK1.
The assay was performed in a buffer containing 50 mM N-2-Hydroxyethylpiperazine-N′-2-ethanesulfonic acid (HEPES) (pH 7.5), 10 mM MgCl2, 1 mM ethylene diamine tetraacetic acid (EDTA), and 0.01% BRIJ-35 (Polyoxyethylene (23) lauryl ether). Test compounds were solvated in dimethyl sulfoxide (DMSO) at final concentrations 4-fold serially diluted from 100 to 0.000095 uM in technical duplicates into an empty 384 well plate. Recombinant RIPK1 (final concentration of 2.5 nM) was added to the wells and incubated with test compound for 1 hour at room temperature. A solution containing the fluorescent probe (final concentration 5 nM) and an LanthaScreen Tb-anti-GST antibody (Thermofisher Scientific; final concentration of 5 nM) was then added to each well, with the Tb-anti-GST antibody binding to the GST portion of the recombinant RIPK1 and providing the corresponding FRET pair to the fluorescent probe. The plate was incubated for 1 hour at room temperature and read on an Envision plate reader using a time resolved FRET protocol. Data was normalized and analyzed using Studies from Dotmatics.

For data set [4], the system named is U937 cells. Description: U937 TNF/zVAD Cytotoxicity Cell Assay. The class given is cell-based. As to conditions: Homo sapiens, U-937; TNFα 10 ng/mL + Z-VAD FMK 20 μM, 16-20 hours; read-out: U937 TNF/zVAD Induced Cytotoxicity IC50. As for the experimental part: Compounds were tested for their ability to prevent TNF induced necroptosis in U937 cells. Treatment with TNF and the caspase inhibitor zVAD-FMK results in the activation and phosphorylation of RIPK1 and subsequent phosphorylation of RIPK3 and MLKL (Mixed Lineage Kinase Domain Like Pseudokinase), leading to induction of necroptotic cell death that is measured as a reduction in cell viability. Similar U937 assay protocols have been previously described; see, e.g., Harris et al., ACS Med. Chem. Letters (2013) 4:1238-1243 and Supplementary Information.
Test compounds were solvated in dimethyl sulfoxide (DMSO) and 3-fold serially diluted from 10 uM to 0.0005 uM with technical duplicates into an empty 384 well plate. U937 cells were resuspended at a concentration of 500,000 cells/mL in fresh RPMI (Roswell Park Memorial Institute) 1640 growth medium containing 10% heat inactivated fetal bovine serum (FB1S) and seeded into a 384 well plate containing compounds and incubated for 1 hour at 37° C. Following incubation, the cells were challenged with TNFα (final concentration of 10 ng/mL) and Z-VAD FMK (N-Benzyloxycarbonyl-Val-Ala-Asp(O-Me) fluoromethyl ketone; final concentration of 20 μM) for 16-20 hours at 37° C. Following the incubation with TNFα/Z-VAD, cells were lysed with Cell Titer-Glo and incubated for 5-10 minutes. The plate was then read on an Envision plate reader. Data was normalized and analyzed with Studies from Dotmatics.

Chain of RIPK1 (Q13546 1-375): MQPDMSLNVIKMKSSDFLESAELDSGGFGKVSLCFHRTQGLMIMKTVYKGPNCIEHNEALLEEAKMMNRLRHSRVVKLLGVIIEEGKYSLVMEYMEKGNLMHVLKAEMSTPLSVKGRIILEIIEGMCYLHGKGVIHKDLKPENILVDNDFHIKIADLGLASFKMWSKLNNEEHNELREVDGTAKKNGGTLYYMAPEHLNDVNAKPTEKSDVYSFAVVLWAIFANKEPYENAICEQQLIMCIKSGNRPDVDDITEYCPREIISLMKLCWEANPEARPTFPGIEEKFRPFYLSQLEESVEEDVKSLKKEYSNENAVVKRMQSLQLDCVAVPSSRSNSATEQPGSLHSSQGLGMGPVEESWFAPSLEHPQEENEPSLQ

For `CN(C[C@H](Cc1ccccc1)OP(=O)(O)O)C(=O)c1cncc(C#Cc2cnn(C(F)F)c2)c1` [Example 19, (S)-1-(5-((1-(difluoromethyl)-1H-pyrazol-4-yl)ethynyl)-N-methylnicotinamido)-3-phenylpropan-2-yl dihydrogen phosphate], the “Clint (prodrug disappearance)” value in data set [1] (Dog, Experiment 1) is 331 μL/min/mg intestinal S9 protein; in data set [1] (Dog, Experiment 2) it was 387 μL/min/mg intestinal S9 protein; in data set [1] (Dog, Experiment 3), 397 μL/min/mg intestinal S9 protein; in data set [1] (Dog, Mean of 3 experiments), 371.7 μL/min/mg intestinal S9 protein; in data set [1] (Monkey, Experiment 1) it was 87.5 μL/min/mg intestinal S9 protein; in data set [1] (Monkey, Experiment 2), 60.3 μL/min/mg intestinal S9 protein. In addition, the “Clint (prodrug disappearance)” value in data set [1] (Monkey, Experiment 3) is given as 60.7 μL/min/mg intestinal S9 protein; in data set [1] (Monkey, Mean of 3 experiments), 69.5 μL/min/mg intestinal S9 protein; in data set [2] (Human, 0.01 mg/mL S9 protein, Table F), 1608.5 μL/min/mg intestinal S9 protein; in data set [2] (Human, 0.25 mg/mL S9 protein, Table F) it was 296 μL/min/mg intestinal S9 protein; in data set [2] (Human, 0.25 mg/mL, Experiment 1), 246 μL/min/mg intestinal S9 protein; in data set [2] (Human, 0.25 mg/mL, Experiment 2), 228 μL/min/mg intestinal S9 protein. For the same compound, the “Clint (prodrug disappearance)” value is given as 235 μL/min/mg intestinal S9 protein in data set [2] (Human, 0.25 mg/mL, Experiment 3); 236.3 μL/min/mg intestinal S9 protein in data set [2] (Human, 0.25 mg/mL, Mean of 3 experiments); 116.8 μL/min/mg intestinal S9 protein in data set [2] (Mouse, 0.01 mg/mL S9 protein, Table F); 54.7 μL/min/mg intestinal S9 protein in data set [2] (Mouse, 0.25 mg/mL S9 protein, Table F); 43.1 μL/min/mg intestinal S9 protein in data set [2] (Mouse, 0.25 mg/mL, Experiment 1); 74.6 μL/min/mg intestinal S9 protein in data set [2] (Mouse, 0.25 mg/mL, Experiment 2). Further, the “Clint (prodrug disappearance)” value in data set [2] (Mouse, 0.25 mg/mL, Experiment 3) was 42.2 μL/min/mg intestinal S9 protein; in data set [2] (Mouse, 0.25 mg/mL, Mean of 3 experiments), 53.3 μL/min/mg intestinal S9 protein; in data set [2] (Rat, 0.01 mg/mL S9 protein, Table F), <137** μL/min/mg intestinal S9 protein; in data set [2] (Rat, 0.25 mg/mL S9 protein, Table F) it was 42.4 μL/min/mg intestinal S9 protein; in data set [2] (Rat, 0.25 mg/mL, Experiment 1), 25.6 μL/min/mg intestinal S9 protein; in data set [2] (Rat, 0.25 mg/mL, Experiment 2), 16.9 μL/min/mg intestinal S9 protein. In addition, the “Clint (prodrug disappearance)” value in data set [2] (Rat, 0.25 mg/mL, Experiment 3) was 50.6 μL/min/mg intestinal S9 protein; in data set [2] (Rat, 0.25 mg/mL, Mean of 3 experiments), 31 μL/min/mg intestinal S9 protein.

Consider `CN(C[C@@H](O)Cc1ccccc1)C(=O)c1cncc(C#Cc2cnn(C(F)F)c2)c1` [Example 2, (S)-5-((1-(difluoromethyl)-1H-pyrazol-4-yl)ethynyl)-N-(2-hydroxy-3-phenylpropyl)-N-methylnicotinamide], for which the IC50 stood at 4 nM in data set [3] and 11 nM in data set [4].
